Results as given in US20240067617A1 (Albireo AB, priority 2022, published 2024).
One block for each compound: values may come before it.

Assays:
hLBAT = target: T1, hLBAT (Homo sapiens, UniProt Q14973); experiment: LBAT (h/m) assay: 3H-taurocholic acid uptake in human LBAT-overexpressing cells; assay type: cell-based; conditions: 0.3 μM 3H-taurocholic acid + 7.5 μM cold taurocholic acid, 20 minutes at 37° C.
T1 construct: expressed in transfected cells; kept under Geneticin selection
T1 sequence (Q14973 1-349): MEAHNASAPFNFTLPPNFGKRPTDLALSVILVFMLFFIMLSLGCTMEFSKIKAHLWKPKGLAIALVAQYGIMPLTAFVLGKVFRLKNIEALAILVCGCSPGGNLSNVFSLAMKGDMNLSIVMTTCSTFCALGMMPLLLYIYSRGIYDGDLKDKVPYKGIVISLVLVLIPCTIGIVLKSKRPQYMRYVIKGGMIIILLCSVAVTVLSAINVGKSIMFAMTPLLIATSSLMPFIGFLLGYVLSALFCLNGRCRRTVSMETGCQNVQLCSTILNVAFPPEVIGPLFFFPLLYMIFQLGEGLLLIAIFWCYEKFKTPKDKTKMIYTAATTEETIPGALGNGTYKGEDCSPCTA
Procedure: LBAT (h/m) Assay Protocol
20,000 cells (Human or Mouse LBAT-overexpressing cells) were seeded in 96-wells plate (Corning CLS3809) in 100 μL MEM-alpha medium (Gibco 12571-063) supplemented with 10% FBS (Gibco 10438026) containing Geneticin (Gibco 10131-027) (1 mg/mL) and incubated at 37° C. in 5% CO2 for 24 hours. After incubation, media was decanted from the wells and cells were washed two times with 300 μL of basal MEM-alpha medium (FBS-free). After decanting basal MEM-alpha medium each time, plates were tapped against paper towel to ensure maximum removal of residual media. For human LBAT, incubation mix was prepared by adding test inhibitor dilutions (3-fold serial dilution in DMSO (Sigma D2650), 10 points) in MEM-alpha (without FBS) containing 0.3 μM 3H-taurocholic acid (ARC ART-1368) and 7.5 μM cold taurocholic acid (Sigma T4009) (maintaining 0.2% final DMSO concentration). For mouse LBAT, incubation mix was prepared by adding test inhibitor dilutions (3-fold serial dilution in DMSO, 10 points) in MEM-alpha (without FBS) containing 0.3 μM 3H-taurocholic acid and 25 μM cold taurocholic acid maintaining 0.2% final DMSO concentration). 50 μL of incubation mix containing test inhibitors was then added to the wells (in duplicate) and the plates were incubated for 20 minutes in a CO2 incubator at 37° C. After incubation, the reaction was stopped by keeping the plates on ice water mix for 2-3 minutes and then the incubation mix was aspirated completely from the wells. The wells were washed two times with 250 μL of chilled unlabelled 1 mM taurocholic acid dissolved in HEPES (Gibco 15630080)-buffered (10 mM) HBSS (Gibco 14175079) (pH 7.4). The plates were tapped against a paper towel after every wash to ensure maximum removal of blocking buffer.
100 μL of MicroScint-20 (PerkinElmer 6013621) was added to the wells and kept overnight at RT before reading the plates in TopCount NXT™ Microplate Scintillation and Luminescence Counter from PerkinElmer under 3H Test protocol (set at 120 seconds reading time per well, with normal plate orientation).
(§1) Preparation of Test Compound Dilutions
(§2) All test compounds were provided in powder form at RT. 10 mM DMSO stocks of the test compounds were prepared, aliquoted and stored at −20° C. From the 10 mM DMSO stock of the compounds, a 3-fold serial dilution in DMSO was prepared to get a total of 10 dilutions of the test compounds. 0.5 μL of this dilution in DMSO was added to 250 μL of FBS-free basal media containing 3H-taurocholic acid and cold taurocholic acid to prepare the incubation mixture.

hIBAT = target: T2, hIBAT (Homo sapiens, UniProt Q12908); experiment: IBAT (h/m) assay: 3H-taurocholic acid uptake in human IBAT-overexpressing cells; assay type: cell-based; conditions: 0.25 μM 3H-taurocholic acid + 5 μM cold taurocholic acid, 20 minutes at 37° C., highest test concentration 10 μM
T2 construct: expressed in transfected cells; kept under Puromycin selection
T2 sequence (Q12908 1-348): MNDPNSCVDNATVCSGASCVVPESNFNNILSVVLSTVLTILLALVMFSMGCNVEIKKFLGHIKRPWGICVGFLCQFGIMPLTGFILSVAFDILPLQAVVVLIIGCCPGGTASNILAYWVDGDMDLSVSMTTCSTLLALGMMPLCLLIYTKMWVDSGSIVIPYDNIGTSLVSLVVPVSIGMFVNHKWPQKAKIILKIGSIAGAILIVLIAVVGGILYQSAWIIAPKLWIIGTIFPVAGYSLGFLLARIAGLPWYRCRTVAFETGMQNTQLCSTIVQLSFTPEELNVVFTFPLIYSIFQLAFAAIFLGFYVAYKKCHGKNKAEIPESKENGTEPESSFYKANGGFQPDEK
Procedure: IBAT (h/m) Assay Protocol
10,000 cells (Human or Mouse IBAT-overexpressing cells) were seeded in 96-wells plate (Corning CLS3809) in 200 μL MEM-alpha medium (Gibco 12571-063) supplemented with 10% FBS (Gibco 10438026) containing Puromycin (Gibco A1113803) (10 μg/mL) and incubated at 37° C. in 5% CO2 for 48 hours. After incubation, media was decanted from the wells and cells were washed two times with 300 μL of basal MEM-alpha medium (FBS-free). After decanting basal MEM-alpha medium each time, plates were tapped against paper towel to ensure maximum removal of residual media. Test inhibitor dilutions (highest test concentration being 10 μM, 3-fold serial dilution, 10 points) prepared in DMSO (Sigma D2650) were added in incubation mix (maintaining 0.2% final DMSO concentration) containing 0.25 μM 3H-taurocholic acid (ARC ART-1368) and 5 μM of cold taurocholic acid (Sigma T4009). 50 μL of incubation mix containing test inhibitors was then added to the wells (in duplicate) and the plates were incubated for 20 minutes in a CO2 incubator at 37° C. After incubation, the reaction was stopped by keeping the plates on ice water mix for 2-3 minutes and then the incubation mix was aspirated completely from the wells. The wells were washed two times with 250 μL of chilled unlabelled 1 mM taurocholic acid dissolved in HEPES (Gibco 15630080)-buffered (10 mM) HBSS (Gibco 14175079) (pH 7.4). The plates were tapped against a paper towel after every wash to ensure maximum removal of blocking buffer.
100 μL of MicroScint-20 (PerkinElmer 6013621) was added to the wells and kept overnight at RT before reading the plates in TopCount NXT™ Microplate Scintillation and Luminescence Counter from PerkinElmer under 3H Test protocol (set at 120 seconds reading time per well).
as §1, §2

SMILES: CCCCC1(CC)CN(c2ccccc2)c2cc(OC)c(CSCC(=O)O)cc2S(=O)(=O)N1 (racemic) [Example 44, 2-(((3-butyl-3-ethyl-7-methoxy-1,1-dioxido-5-phenyl-2,3,4,5-tetrahydro-1,2,5-benzothiadiazepin-8-yl)methyl)thio)acetic acid]
IC50 (hLBAT): > 1000 nM | IC50 (hIBAT): 5.2 nM

SMILES: CCCCC1(CC)CN(c2ccccc2)c2cc(SC)c(CSCC(=O)O)cc2S(=O)(=O)C1 (single isomer, unassigned) [2, enantiomer 2]
IC50 (hLBAT): 3150 nM | IC50 (hIBAT): 2.8 nM

SMILES: CCCCC1(CC)CN(c2ccccc2)c2cc(SC)c(CSCC(=O)O)cc2S(=O)(=O)N1 (single isomer, unassigned) [10, enantiomer 1]
IC50 (hLBAT): > 3330 nM | IC50 (hIBAT): 0.3 nM

SMILES: CCCCC1CN(c2ccccc2)c2cc(SC)c(CSCC(=O)O)cc2S(=O)(=O)N1C (single isomer, unassigned) [12, enantiomer 1]
IC50 (hLBAT): > 10000 nM | IC50 (hIBAT): 115 nM

SMILES: CCCCC1(CC)CN(c2ccccc2)c2cc(OC)c(CSCC(=O)O)cc2S(=O)(=O)C1 (single isomer, unassigned) [14, enantiomer 1]
IC50 (hLBAT): > 1000 nM | IC50 (hIBAT): 1.1 nM

SMILES: CCCCC1(CC)CN(c2ccccc2)c2cc(OC)c(CSCC(=O)O)cc2S(=O)(=O)C1 (single isomer, unassigned) [14, enantiomer 2]
IC50 (hLBAT): > 1000 nM | IC50 (hIBAT): 64 nM

SMILES: CCCCC1(CC)CN(c2ccc(F)cc2)c2cc(SC)c(CSC(C)(C)C(=O)O)cc2S(=O)(=O)C1 (single isomer, unassigned) [16, enantiomer 2]
IC50 (hLBAT): 220 nM | IC50 (hIBAT): 659 nM

SMILES: CCCCC1(CC)CN(c2ccccc2)c2cc(SC)c(CSCC(=O)O)cc2S(=O)(=O)N1C (single isomer, unassigned) [21, enantiomer 1]
IC50 (hLBAT): 3310 nM | IC50 (hIBAT): > 243 nM

SMILES: CCCCC1(CC)CN(c2ccccc2)c2cc(SC)c(CSCC(=O)O)cc2S(=O)(=O)N1C (single isomer, unassigned) [21, enantiomer 2]
IC50 (hLBAT): 1900 nM | IC50 (hIBAT): > 554 nM

SMILES: CCCCC1(CC)CN(c2ccccc2)c2cc(OC)c(CSC(C)(C)C(=O)O)cc2S(=O)(=O)C1 (single isomer, unassigned) [26, enantiomer 1]
IC50 (hLBAT): 104 nM | IC50 (hIBAT): 195 nM

SMILES: CCCCC1(CC)CN(c2ccccc2)c2cc(OC)c(CSC(C)(C)C(=O)O)cc2S(=O)(=O)C1 (single isomer, unassigned) [26, enantiomer 2]
IC50 (hLBAT): 245 nM | IC50 (hIBAT): 5110 nM

SMILES: CCCCC1CN(c2ccc(F)cc2)c2cc(OC)c(CSCC(=O)O)cc2S(=O)(=O)N1C (single isomer, unassigned) [30, enantiomer 1]
IC50 (hLBAT): > 10000 nM | IC50 (hIBAT): > 10000 nM

SMILES: CCCCC1CN(c2ccc(F)cc2)c2cc(OC)c(CSCC(=O)O)cc2S(=O)(=O)N1C (single isomer, unassigned) [30, enantiomer 2]
IC50 (hLBAT): 200 nM | IC50 (hIBAT): 349 nM

The next lines start with the values.

IC50 (hLBAT): 134 nM | IC50 (hIBAT): > 1110 nM
SMILES: CCCCC1(C)CN(c2ccccc2)c2cc(OC)c(CSC(C)(C)C(=O)O)cc2S(=O)(=O)C1 (racemic) [Example 41, 2-(((3-butyl-7-methoxy-3-methyl-1,1-dioxido-5-phenyl-2,3,4,5-tetrahydro-1,5-benzothiazepin-8-yl)methyl)thio)-2-methylpropanoic acid]

IC50 (hLBAT): > 1000 nM | IC50 (hIBAT): 14 nM
SMILES: CCCCC1(CC)CN(c2ccccc2)c2cc(S(C)(=O)=O)c(CSCC(=O)O)cc2S(=O)(=O)N1 (racemic) [Example 47, 2-(((3-butyl-3-ethyl-7-(methylsulfonyl)-1,1-dioxido-5-phenyl-2,3,4,5-tetrahydro-1,2,5-benzothiadiazepin-8-yl)methyl)thio)acetic acid]

IC50 (hLBAT): 4400 nM | IC50 (hIBAT): 44 nM
SMILES: CCCCC1(C)CN(c2ccccc2)c2cc(SC)c(CSCC(=O)O)cc2S(=O)(=O)C1 (single isomer, unassigned) [5, enantiomer 2]

IC50 (hLBAT): 4840 nM | IC50 (hIBAT): 2.8 nM
SMILES: CCCCC1(CC)CN(c2ccc(F)cc2)c2cc(SC)c(CSCC(=O)O)cc2S(=O)(=O)C1 (single isomer, unassigned) [7, enantiomer 2]

IC50 (hLBAT): 34 nM | IC50 (hIBAT): 116 nM
SMILES: CCCCC1CN(c2ccccc2)c2cc(SC)c(CSCC(=O)O)cc2S(=O)(=O)N1C (single isomer, unassigned) [12, enantiomer 2]

IC50 (hLBAT): 164 nM | IC50 (hIBAT): 10 nM
SMILES: CCCCC1(CC)CN(c2ccc(F)cc2)c2cc(SC)c(CSC(C)(C)C(=O)O)cc2S(=O)(=O)C1 (single isomer, unassigned) [16, enantiomer 1]

IC50 (hLBAT): 194 nM | IC50 (hIBAT): 192 nM
SMILES: CCCCC1(C)CN(c2ccccc2)c2cc(SC)c(CSC(C)(C)C(=O)O)cc2S(=O)(=O)C1 (single isomer, unassigned) [19, enantiomer 1]

IC50 (hLBAT): 176 nM | IC50 (hIBAT): 1870 nM
SMILES: CCCCC1(C)CN(c2ccccc2)c2cc(SC)c(CSC(C)(C)C(=O)O)cc2S(=O)(=O)C1 (single isomer, unassigned) [19, enantiomer 2]

IC50 (hLBAT): > 10000 nM | IC50 (hIBAT): 7.7 nM
SMILES: CCCCC1(C)CN(c2ccccc2)c2cc(OC)c(CSCC(=O)O)cc2S(=O)(=O)C1 (single isomer, unassigned) [28, enantiomer 1]

IC50 (hLBAT): > 10000 nM | IC50 (hIBAT): 532 nM
SMILES: CCCCC1(C)CN(c2ccccc2)c2cc(OC)c(CSCC(=O)O)cc2S(=O)(=O)C1 (single isomer, unassigned) [28, enantiomer 2]

IC50 (hLBAT): 110 nM | IC50 (hIBAT): 161 nM
SMILES: CCCCC1(CC)CN(c2ccc(F)cc2)c2cc(OC)c(CSC(C)(C)C(=O)O)cc2S(=O)(=O)C1 (single isomer, unassigned) [34, enantiomer 1]

IC50 (hLBAT): 155 nM | IC50 (hIBAT): 1960 nM
SMILES: CCCCC1(CC)CN(c2ccc(F)cc2)c2cc(OC)c(CSC(C)(C)C(=O)O)cc2S(=O)(=O)C1 (single isomer, unassigned) [34, enantiomer 2]

IC50 (hLBAT): > 10000 nM | IC50 (hIBAT): > 10000 nM
SMILES: CCCCC1CN(c2ccccc2)c2cc(OC)c(CSCC(=O)O)cc2S(=O)(=O)N1C (single isomer, unassigned) [36, enantiomer 1]
